Measured values taken from patent publication US12268710B2, “Method of treating severe forms of pulmonary hypertension” (ReversPAH LLC, priority 2019, dated 2025).
“Also recorded” adds a separate entry of the source.

Experiments:
[1] = tested on: Sugen/Hypoxia rats (SuHx) with established PAH; assay: Sugen 5416/chronic hypoxia rat model of severe angio-obliterative PAH; format: in vivo
Experimental: Specifically, FIGS. 4A and B, which are from the paper which included Norbert F. Voelkel as a senior author, show the compared results of control rats, Sugen/Hypoxia rats (SuHx) with established PAH, and SuHx rats treated with TTM in an amount of 10 mg/kg every other day for 10 days. […] FIG. 5 provides the results, which compares the degree of obliteration of c-kit^+ expressing stem cells in the lung vessels of Sugen/Hypoxia rats (SuHx) treated with a vehicle (SuHx-vehicle) and Sugen/Hypoxia rats treated with TTM (SuHx-TTM) in an amount of 10 mg/kg every other day for 10 days. Third, copper plays a role in the alteration of genes of the cytochrome P450. The lung and, in particular, the lung vascular endothelial cells (EC) are involved in drug metabolism and the handling of toxic substances. It is known that cigarette smoke toxins highly up-regulate the expression of specific drug metabolizing genes, the genes of the cytochrome P450 super-family. There are 56 known cytochrome P450 genes coding for 56 isozymes. These enzymes metabolize 75% of all drugs in use, including all of the vasodilator drugs conventionally used for PAH treatment. These enzymes also are involved in cell growth and differentiation, in cholesterol and estrogen metabolism and for many years a role of these enzymes in the pathogenesis of cancers has been examined (in particular prostate, breast and lung cancer) (Kwapiszewska G et al, Circulation Research, submitted 2019). Norbert F. Voelkel discovered that the drug Sugen 5416, a component of the Sugen-induced rat models of angio-obliterative PAH, induces some of these cytochrome P450 isozyme genes more than 200-fold (Al-Husseini et al, Pulm Circ. 2015 March; 5(1); 101-116). […] Specifically, the vessel lumina are occluded in the not-treated animals (SuHx), whereas they have been reopened after the treated animals (SuHx+TTM) received 10 mg/kg TTM every other day for 10 days. […] The treatment lasted 3 weeks (21 days) with DEC being administered in an amount of 50 mg/kg daily treatment. Norbert F. Voelkel concludes that the anti-inflammatory drug DEC affects developing PAH and is partially effective once angio-obliterative PAH has been established.

[2] = tested on: cytochrome P450 isozyme genes; assay: Induction of cytochrome P450 isozyme genes by Sugen 5416; details: Al-Husseini et al, Pulm Circ. 2015
Excerpt: Third, copper plays a role in the alteration of genes of the cytochrome P450. The lung and, in particular, the lung vascular endothelial cells (EC) are involved in drug metabolism and the handling of toxic substances. It is known that cigarette smoke toxins highly up-regulate the expression of specific drug metabolizing genes, the genes of the cytochrome P450 super-family. There are 56 known cytochrome P450 genes coding for 56 isozymes. These enzymes metabolize 75% of all drugs in use, including all of the vasodilator drugs conventionally used for PAH treatment. These enzymes also are involved in cell growth and differentiation, in cholesterol and estrogen metabolism and for many years a role of these enzymes in the pathogenesis of cancers has been examined (in particular prostate, breast and lung cancer) (Kwapiszewska G et al, Circulation Research, submitted 2019). Norbert F. Voelkel discovered that the drug Sugen 5416, a component of the Sugen-induced rat models of angio-obliterative PAH, induces some of these cytochrome P450 isozyme genes more than 200-fold (Al-Husseini et al, Pulm Circ. 2015 March; 5(1); 101-116). […] Specifically, the vessel lumina are occluded in the not-treated animals (SuHx), whereas they have been reopened after the treated animals (SuHx+TTM) received 10 mg/kg TTM every other day for 10 days.

angiogenesis = details: high dosage; through the induction of apoptosis; cited from earlier work
[3] = tested on: silica-induced lung inflammation and fibrosis; details: by inhibiting T-helper 17 cell (TH 17); cited from earlier work
colon cancer = details: by apoptosis and cellular senescence; cited from earlier work
[4] = tested on: monocrotaline-induced pulmonary hypertension; details: through the bone morphogenetic protein signaling pathway; cited from earlier work
[5] = tested on: Sugen/Hypoxia rats (SuHx) with established PAH; details: Farkas D. et al 2014; cited from earlier work
[6] = tested on: patient with pulmonary veno-occlusive disease (PVOD); assay: Low-dose MTX treatment of one patient with pulmonary veno-occlusive disease; format: in vivo, human
Excerpt: Another possible co-drug is methotrexate. […] MTX is of particular interest because it is an inhibitor of the enzyme dihydrofolate reductase and thereby inhibits DNA, RNA and protein synthesis, which is the desired action in cancer treatment at high MTX doses. Norbert Voelkel has prescribed MTX for one patient with pulmonary veno-occlusive disease, which is a rare form of severe PH. […] The anti-inflammatory and immune system affecting action of MTX is accomplished with low doses. […] PVOD is a fatal and extremely rare PH disorder. […] Vasodilator-induced lung edema precludes the use of vasodilator drugs in these patients.

rodent models of PH = details: in vivo; cited from earlier work
[7] = established severe PAH, treated for two weeks
[8] = DEC study 2015 (Al Husseini et al)
[9] = after lung vascular disease established, 50 mg/kg daily for 3 weeks (21 days)

[NH4+].[NH4+].[SH-].[SH-].[S]=[Mo]=[S] [TTM, ammonium tetrathiomolybdate]
expression of integrin protein alpha v beta 3 in lung (FIGS. 4A, B) ([1]; 10 mg/kg every other day for 10 days): reduced; also recorded: normalized
lung vessel lumina / arterioles (immunohistochemistry, FIG. 2) ([1]; 10 mg/kg every other day for 10 days, intraperitoneal, SuHx+TTM vs SuHx): reopened; also recorded: reopens lung arterioles
number of c-kit+ precursor cells in the lung vascular lesions (FIG. 5) ([1]; 10 mg/kg every other day for 10 days, vs SuHx-vehicle): reduced the number of c-kit+ precursor cells
expression of anoikis marker protein BIM in lung tissue (FIG. 3) ([1]; SuHx-TTM vs SuHx, referenced to beta-actin): upregulated
anoikis, evidenced by cells expressing the marker BIM ([1]; TTM-treated SuHx rats): induced anoikis
occluded lung vessels [1, 7]: reopening of occluded lung vessels
pulmonary arterial pressure [1, 7]: cut the pulmonary arterial pressure in half
reversal of established severe PAH [1, 7]: reversed the PAH

Cc1cc(C)c(/C=C2\C(=O)Nc3ccccc32)[nH]1 [Sugen 5416]
induction of some cytochrome P450 isozyme genes [2]: more than 200 fold

O=C(O)[C@H]1O[C@@H](Oc2cc3oc(-c4ccccc4)cc(=O)c3c(O)c2O)[C@H](O)[C@@H](O)[C@@H]1O [baicalin]
angiogenesis (angiogenesis): inhibit angiogenesis
silica-induced lung inflammation and fibrosis [3]: alleviate
colon cancer (colon cancer): inhibit colon cancer
monocrotaline-induced pulmonary hypertension [4]: attenuate

S=C(S)N1CCCC1 [pyrrolidine dithiocarbamate]
reversal of established angio-obliterative PAH [5]: reverse established angio-obliterative PAH

CCN(CC)C(=O)N1CCN(C)CC1 [DEC, diethylcarbamazine]
muscularization of pulmonary arterioles [1, 8]: blunted
number of fully obliterated lung vessels [1, 8]: reduced
occluded vessels (FIGS. 8A-C) ([1]; SuHx+DEC vs SuHx): reopens occluded vessels
degree of PAH [1, 9]: reduced
degree of perivascular inflammation [1, 9]: reduced
number of obliterated arterioles [1, 9]: reduced

CN(Cc1cnc2nc(N)nc(N)c2n1)c1ccc(C(=O)N[C@@H](CCC(=O)O)C(=O)O)cc1 [MTX, Methotrexate]
reversal of the PH [6]: did not reverse the PH
survival [6]: prolonged survival
progression of the disease (PVOD) ([6]; low dose MTX): arrested the proliferative progression; also recorded: halted

O=c1c(O)c(-c2ccc(O)c(O)c2)oc2cc(O)cc(O)c12 [Quercetin]
vascular remodeling in rodent models of PH (rodent models of PH): inhibit
